In US8642611B2, “Alkynylpyrimidines and salts thereof, pharmaceutical compositions comprising same, methods of preparing same and uses of same” (Bayer Intellectual Property GmbH, priority 2007, dated 2014) one finds IC50 data, which are given here for 16 compounds.

Molecules are shown by their SMILES. pIC50: −log10 of the molar value.

For one test, the target named is T1, human Aurora-C (Homo sapiens, UniProt Q9UQB9).
T1 construct: GST; made in house; host or cells: transiently transfected HEK293 cells (the print adds '(Sf9)', which contradicts this)
T1 sequence (Q9UQB9 1-309): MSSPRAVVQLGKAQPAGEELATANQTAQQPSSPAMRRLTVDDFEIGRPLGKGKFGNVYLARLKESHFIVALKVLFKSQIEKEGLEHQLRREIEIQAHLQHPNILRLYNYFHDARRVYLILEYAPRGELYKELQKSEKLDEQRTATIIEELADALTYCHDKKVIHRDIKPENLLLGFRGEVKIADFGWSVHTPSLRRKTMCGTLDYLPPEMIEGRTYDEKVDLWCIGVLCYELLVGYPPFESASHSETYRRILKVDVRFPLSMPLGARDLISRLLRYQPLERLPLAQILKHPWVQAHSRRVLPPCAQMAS
Description: Aurora-C Kinase Assay. It is filed as biochemical. To be noted: Aurora-C HTRF, 10 μM ATP; read-out: Aurora C activity (assay 7). The source says: Assay 7: Aurora-C Kinase Assay
Aurora-C inhibitory activity of compounds of the present invention was quantified employing the Aurora-C HTRF assay as described in the following paragraphs.
Recombinant fusion protein of GST and human Aurora-C was expressed in transiently transfected HEK293 cells […] and purified by Glutathion-Sepharose affinity chromatography. As substrate for the kinase reaction biotinylated peptide biotin-Ttds-FMRLRRLSTKYRT (C-terminus in amid form) was used which can be purchased e.g. form the company JERINI peptide technologies (Berlin, Germany). Aurora-C was incubated for 60 min at 22° C. in the presence of different concentrations of test compounds in 5 μl assay buffer [25 mM Hepes/NaOH pH 7.4, 0.5 mM MnCl2, 2.0 mM dithiothreitol, 0.1 mM sodium ortho-vanadate, 10 μM adenosine-tri-phosphate (ATP), […] substrate, 0.01% (v/v) TritonX-100 (Sigma), 0.05% (w/v) bovine serum albumin, 1% (v/v) dimethylsulfoxide]. The concentration of Aurora-C was adjusted depending of the activity of the enzyme lot and was chosen appropriate to have the assay in the linear range, typical concentrations were in the range of 0.3 nM. The reaction was stopped by the addition of 5 μl of a solution of HTRF detection reagents (0.2 μM streptavidine-XLent and 1.4 nM Anti-Phospho-(Ser/Thr) Akt substrate-Cryptate (C is biointernational, France, product no. 61PO2KAE), a labeled Phospho-(Ser/Thr) Akt substrate antibody [product #9611B, Cell Signaling Technology, Danvers, Mass., USA] labeled with Europium Cryptate, in an aqueous EDTA-solution (40 mM EDTA, 400 mM KF, 0.05% (w/v) bovine serum albumin in 25 mM HEPES/NaOH pH 7.0).
The resulting mixture was incubated 1 h at 22° C. to allow the binding of the biotinylated phosphorylated peptide to the streptavidine-XLent and the Anti-Phospho-(Ser/Thr) Akt substrate-Cryptate. Subsequently the amount of phosphorylated substrate was evaluated by measurement of the resonance energy transfer from the Prot-A-EuK to the streptavidine-XLent. Therefore, the fluorescence emissions at 620 nm and 665 nm after excitation at 350 nm was measured in a HTRF reader, e.g. a Rubystar (BMG Labtechnologies, Offenburg, Germany) or a Viewlux (Perkin-Elmer). The ratio of the emissions at 665 nm and at […] was taken as the measure for the amount of phosphorylated substrate. The data were normalised (enzyme reaction without inhibitor=0% inhibition, all other assay components but no enzyme=100% inhibition) and IC50 values were calculated by a 4 parameter fit using an inhouse software.
(In TR-FRET formats the signal depends on donor and acceptor labels being close together.)

The test system of another test is MVECs. Description: VEGF-Stimulated Endothelial Cell Proliferation Assay. It is filed as cell-based. To be noted: 72 h, 3 days, Alamar Blue, read-out: EC proliferation (assay 5). As for the experimental part: Assay 5: VEGF-Stimulated Endothelial Cell Proliferation Assay
MVECs are plated to collagen coated 48 well plates at a density of 30 000 cells per well in Earles's Medium M199 (complete with serum). After 4 h the medium is exchanged for medium containing 2% human serum without growth factors (200 μl) and cells are maintained overnight at low serum conditions. The other day the medium is exchanged for the same low serum medium containing in addition test compounds or vehicle in the appropriate concentrations using appropriate controls is exchanged. Five minutes later low serum medium containing 40 ng/ml VEGF is added (200 μl). Cells are cultured for 3 days before mixing with Alamar Blue® (dilution factor of 1: 20) and incubating it for 2 h at 37° C. Measurement of fluorescence intensity is done with the following filters: 528/25 Excitation, 590/35 Emission for the determination of the IC50 concentrations.
Culture Medium Composition
Earle's Medium 199 with stable Glutamine (PAA)+5 ml PenStrep (100×; 10000 Units/10 mg/ml) (PAA)+5 ml Non Essential Amino Acids (100×; without L-Glutamine) (PAA)+5 ml Sodium Pyruvat (100 mM) (PAA)+50 ml FCS (PAA)+50 ml HS+1 ml ECGS in Dulbecco's PBS without Ca2++Mg2+(5 mg/ml) (Sigma)+1 ml Heparin (2500 Units/ml)+2.5 ml Biotect-Protection medium (Biochrom AG)=complete Earle's M 199 medium
Earle's Medium 199 (PAA) with stable Glutamine+5 ml PenStrep (100×; 10000 Units/10 mg/ml) (PAA)+5 ml Non Essential Amino Acids (100×; without L-Glutamine) (PAA)+5 ml Sodium Pyruvat (100 mM) (PAA), 2% HS+2.5 ml Biotect- Protection medium (Biochrom AG)
(In general: Resazurin is reduced to fluorescent resorufin, in cell work by metabolically active cells.)

As for `COc1ccc(C#Cc2cnc(Nc3ccc(S(C)(=N)=O)cc3)nc2N[C@H](C)CO)cc1` (mixture of isomers) [Example 1.1, (RS)—S-(4-[4-((R)-2-Hydroxy-1-methyl-ethylamino)-5-(4-methoxy-phenylethynyl)-pyrimidin-2-ylamino]-phenyl)-S-methylsulfoximide], the pIC50 is less than 5.00 at human Aurora-C and more than 6.30 with MVECs.
The matching figures for `C[C@H](CO)Nc1nc(Nc2ccc(S(C)(=N)=O)cc2)ncc1C#Cc1ccccc1` (mixture of isomers) [Example 1.2, (RS)-S-(4-[4-((R)-2-Hydroxy-1-methyl-ethylamino)-5-(phenylethynyl)-pyrimidin-2-ylamino]-phenyl)-S-methylsulfoximide]: less than 5.00 and more than 6.30.
Regarding `CCc1ccc(C#Cc2cnc(Nc3ccc(S(C)(=N)=O)cc3)nc2N[C@H](C)CO)cc1` (mixture of isomers) [Example 1.8, (RS)-S-(4-[5-(4-Ethyl-phenylethynyl)-4-((R)-2-hydroxy-1-methyl-ethylamino)-pyrimidin-2-ylamino]-phenyl)-S-methylsulfoximide], at human Aurora-C, the pIC50 was less than 5.00.
As for `C[C@H](CO)Nc1nc(Nc2ccc(S(C)(=N)=O)cc2)ncc1C#Cc1ccc(F)cc1` (mixture of isomers) [Example 1.9, (RS)-S-(4-[5-(4-Fluoro-phenyl-ethynyl)-4-((R)-2-hydroxy-1-methyl-ethylamino)-pyrimidin-2-ylamino]-phenyl)-S-methylsulfoximide], the pIC50 at human Aurora-C is less than 5.00; in the test with MVECs it was more than 6.30.
The matching figures for `Cc1cc(C#Cc2cnc(Nc3ccc(S(C)(=N)=O)cc3)nc2N[C@H](C)CO)ccc1F` (mixture of isomers) [Example 1.13, (RS)-S-(4-[5-(4-Fluoro-3-methyl-phenyl-ethynyl)-4-((R)-2-hydroxy-1-methyl-ethylamino)-pyrimidin-2-ylamino]-phenyl)-S-methylsulfoximide]: less than 5.00 and more than 6.30.
On to `CC(C)NC(=O)N=S(C)(=O)c1cccc(Nc2ncc(C#Cc3cccc(O)c3)c(N[C@H](C)CO)n2)c1` (mixture of isomers) [Example 1.15, (RS)-S-(3-[4-((R)-2-Hydroxy-1-methyl-ethylamino)-5-(3-hydroxy-phenylethynyl)-pyrimidin-2-ylamino]-phenyl)-N-(isopropylcarbamoyl)-S-methylsulfoximide], for which, on human Aurora-C, the pIC50 is less than 5.00.
Turning to `COc1ccc(C#Cc2cnc(Nc3cccc(S(C)(=N)=O)c3)nc2N[C@H](C)CO)cc1` (mixture of isomers) [Example 1.17, (RS)-S-(3-[4-((R)-2-Hydroxy-1-methyl-ethylamino)-5-(4-methoxy-phenylethynyl)-pyrimidin-2-ylamino]-phenyl)-S-methylsulfoximide], the pIC50 at human Aurora-C is less than 5.00.
Turning to `C[C@H](CO)Nc1nc(Nc2cccc(S(C)(=N)=O)c2)ncc1C#Cc1cccc(O)c1` (mixture of isomers) [Example 1.18, (RS)-S-(3-[4-((R)-2-Hydroxy-1-methyl-ethylamino)-5-(3-hydroxy-phenylethynyl)-pyrimidin-2-ylamino]-phenyl)-S-methylsulfoximide], the pIC50 was less than 5.00 on human Aurora-C and more than 6.30 in the test with MVECs.
Take `Cc1ccccc1C#Cc1cnc(Nc2cccc(S(C)(=N)=O)c2)nc1N[C@H](C)CO` (mixture of isomers) [Example 1.19, (RS)-S-(3-[4-((R)-2-Hydroxy-1-methyl-ethylamino)-5-(2-methyl-phenylethynyl)-pyrimidin-2-ylamino]-phenyl)-S-methylsulfoximide]: the pIC50 at human Aurora-C is less than 5.00; in the test with MVECs, more than 6.30.
`Cc1cc(C#Cc2cnc(Nc3cccc(S(C)(=N)=O)c3)nc2N[C@H](C)CO)ccc1F` (mixture of isomers) [Example 1.20, (RS)-S-(3-[5-(4-Fluoro-3-methyl-phenyl-ethynyl)-4-((R)-2-hydroxy-1-methyl-ethylamino)-pyrimidin-2-ylamino]-phenyl)-S-methylsulfoximide]: the pIC50 is less than 5.00 at human Aurora-C and more than 6.30 with MVECs.
For the compound `Cc1ccccc1C#Cc1cnc(Nc2ccc(S(C)(=N)=O)cc2)nc1N[C@H](C)CO` (mixture of isomers) [Example 1.3], the results for the pIC50 at human Aurora-C and with MVECs were less than 5.00 and more than 6.30, respectively.
The like results for `Cc1ccc(C#Cc2cnc(Nc3ccc(S(C)(=N)=O)cc3)nc2N[C@H](C)CO)cc1` (mixture of isomers) [Example 1.5] were, in that order, less than 5.00 and more than 6.30.
As to `CCNc1nc(Nc2ccc(S(C)(=N)=O)cc2)ncc1C#Cc1ccc(F)c(C)c1` (racemic) [Example 1.24, (RS)-S-(4-[4-ethylamino-5-(4-fluoro-3-methyl-phenyl-ethynyl)-pyrimidin-2-ylamino]-phenyl)-S-methylsulfoximide], the pIC50 on human Aurora-C is 5.00 to 6.00.
`CCNc1nc(Nc2ccc(S(C)(=N)=O)cc2)ncc1C#Cc1ccc(OC)cc1` (racemic) [Example 1.26, (RS)-S-(4-[4-ethylamino-5-(4-methoxy-phenyl-ethynyl)-pyrimidin-2-ylamino]-phenyl)-S-methylsulfoximide]: the pIC50 at human Aurora-C is 5.00 to 6.00.
For `CCOC(=O)N=S(C)(=O)c1ccc(Nc2ncc(C#Cc3cccc(O)c3)c(N[C@H](C)CO)n2)cc1` (mixture of isomers) [Example 2.7], the pIC50 at human Aurora-C is 5.00 to 6.00; in the test with MVECs, more than 6.30.
Take `CS(=N)(=O)c1cccc(Nc2ncc(C#Cc3cccc(O)c3)cn2)c1` (racemic) [Example 4.2, (RS)—S-(3-[5-(3-hydroxy-phenylethynyl)-pyrimidin-2-ylamino]-phenyl)-S-methylsulfoximide]: at human Aurora-C, the pIC50 is less than 5.00.
